Data from BindingDB's records for doi:10.1016/j.ejmech.2018.08.085 (China Pharmaceutical University, 2018).

Assay: Binding affinity to VDR in scrambled siRNA-transfected human MCF7 cells assessed as cell growth inhibition by measuring reduction in BrdU incorporation after 16 hrs by ELISA
`CCn1c(C(=O)N[C@@H](C)CO)ccc1C(CC)(CC)c1ccc(OCC(O)C(C)(C)C)c(C)c1` (stereo partly drawn) showed an IC50 of 4300 nM.
`CCN(CC)CCNC(=O)c1ccc(C(CC)(CC)c2ccc(OCSC)c(C)c2)n1CC` showed an IC50 of 970 nM.
`CCN(CC)CCNC(=O)c1cc(C(CC)(CC)c2ccc(OCS(=O)(=O)c3ccccc3)c(C)c2)cn1CC` showed an IC50 of 650 nM.
